Results from patent US12152016B2, “Aryl hydrocarbon receptor modulators and uses thereof” (Beth Israel Deaconess Medical Center, Inc., priority 2018, dated 2024).

Tests used:
[1] = LC-MS/MS analysis of plasma after oral dosing of mice; type: in vivo, mouse; conditions: LC-MS/MS of plasma samples
[2] = test system: AHR-dependent transcription of the CYP1A1 gene; experiment: CYP1A1 induction in mouse macrophages; type: cell-based
Protocol: Mouse macrophages were also used to test AHR-dependent transcription of the CYP1A1 gene in vivo. Finally, the activity of exemplary compounds of Formula (I) described herein was tested in the human […] cell line U937. The U937 cell line is derived from a patient with diffuse histiocytic lymphoma. Tables 2-4 summarize structure-activity relationship data collected for exemplary, non-limiting compounds of Formula (I) described herein.

[3] = Liver microsomal stability (LCMS/MS); type: in vitro ADME; conditions: in the presence of liver microsomes
[4] = Plasma stability (LCMS/MS); type: in vitro ADME; conditions: incubated in plasma

- CYP1A1 induction (% of ITE ± SEM) ([2]; 50 nM): 143 ± 90 % of ITE
- CYP1A1 induction (% of ITE ± SEM) ([2]; 5 μM): 88 ± 38 % of ITE
- liver microsomal stability [3]: highly unstable
- plasma stability [4]: highly unstable
SMILES: COC(=O)c1cccc(C(=O)c2c[nH]c3ccccc23)n1 [Compound 10, methyl 6-(1H-indole-3-carbonyl)pyridine-2-carboxylate]
- species found in plasma after oral dosing [1]: only revealed the presence of the much less active carboxylic acid derivative
